Laboratory results from the NIST ThermoML archive (doi:10.1007/s10765-016-2089-2).

Assays:
[1] = refractive index (Na D-line) (dimensionless); wn = mass fraction of the nth substance listed; conditions: 100 kPa, Liquid, Standard Abbe refractometry
[2] = wn = mass fraction of the nth substance listed; conditions: 100 kPa, Liquid; for electrical conductivity: Alternating current cell with electrodes; for viscosity: Capillary tube (Ostwald / Ubbelohde) method; for mass density: Vibrating tube method

O=S(=O)([O-])[O-].[Cu+2] [copper sulfate] + O
Conditions	electrical conductivity, [2] [S/m]	mass density, [2] [kg/m3]	refractive index, [1]	viscosity, [2] [mPa·s]
288.15 K, w1 = 0.0101	0.492	1009.6	1.3353	1.188
288.15 K, w1 = 0.0202	0.851	1019.98	1.3372	1.263
288.15 K, w1 = 0.0305	1.17	1030.49	1.3391	1.344
288.15 K, w1 = 0.0409	1.47	1041.68	1.3411	1.371
288.15 K, w1 = 0.0514	1.76	1052.54	1.3429	1.404
288.15 K, w1 = 0.0621	2.03	1063.7	1.3449	1.472
288.15 K, w1 = 0.0729	2.29	1074.95	1.3469	1.591
288.15 K, w1 = 0.0838	2.54	1086.38	1.3488	1.649
288.15 K, w1 = 0.0948	2.77	1098.22	1.3508	1.744
293.15 K, w1 = 0.0101	0.548	1008.63	1.3348	1.083
293.15 K, w1 = 0.0202	0.943	1019.09	1.3367	1.132
293.15 K, w1 = 0.0305	1.31	1029.38	1.3384	1.191
293.15 K, w1 = 0.0409	1.63	1040.53	1.3405	1.199
293.15 K, w1 = 0.0514	1.96	1051.49	1.3424	1.273
293.15 K, w1 = 0.0621	2.26	1062.26	1.3444	1.31
293.15 K, w1 = 0.0729	2.55	1073.67	1.3463	1.393
293.15 K, w1 = 0.0838	2.82	1084.84	1.3483	1.452
293.15 K, w1 = 0.0948	3.09	1096.44	1.3504	1.528
298.15 K, w1 = 0.0101	0.61	1007.43	1.3343	0.937
298.15 K, w1 = 0.0202	1.05	1017.84	1.3362	1.001
298.15 K, w1 = 0.0305	1.45	1028.06	1.3379	1.018
298.15 K, w1 = 0.0409	1.83	1039	1.34	1.068
298.15 K, w1 = 0.0514	2.18	1049.67	1.3418	1.123
298.15 K, w1 = 0.0621	2.52	1060.66	1.3437	1.142
298.15 K, w1 = 0.0729	2.84	1071.85	1.3456	1.227
298.15 K, w1 = 0.0838	3.16	1083.16	1.3476	1.288
298.15 K, w1 = 0.0948	3.44	1094.5	1.3495	1.36
303.15 K, w1 = 0.0101	0.664	1005.98	1.3338	0.835
303.15 K, w1 = 0.0202	1.14	1016.35	1.3356	0.892
303.15 K, w1 = 0.0305	1.59	1026.77	1.3373	0.918
303.15 K, w1 = 0.0409	2	1037.41	1.3392	0.952
303.15 K, w1 = 0.0514	2.38	1048.04	1.3411	1.014
303.15 K, w1 = 0.0621	2.75	1058.96	1.343	1.029
303.15 K, w1 = 0.0729	3.1	1070.1	1.3449	1.098
303.15 K, w1 = 0.0838	3.44	1081.38	1.3468	1.122
303.15 K, w1 = 0.0948	3.76	1092.64	1.3488	1.203
308.15 K, w1 = 0.0101	0.719	1004.32	1.3331	0.758
308.15 K, w1 = 0.0202	1.24	1014.65	1.3349	0.8
308.15 K, w1 = 0.0305	1.72	1024.97	1.3367	0.835
308.15 K, w1 = 0.0409	2.16	1035.64	1.3387	0.857
308.15 K, w1 = 0.0514	2.57	1046.35	1.3405	0.883
308.15 K, w1 = 0.0621	2.97	1057.16	1.3426	0.948
308.15 K, w1 = 0.0729	3.36	1068.13	1.3445	0.99
308.15 K, w1 = 0.0838	3.74	1078.76	1.3463	1.022
308.15 K, w1 = 0.0948	4.09	1091.27	1.3481	1.089
